ChEMBL document CHEMBL4396960, “Optimization of 1,3-disubstituted urea-based inhibitors of Zika virus infection” (Bioorg Med Chem Lett, 2019)

Experiments:
A549 [1] = assay: Cytotoxicity against human A549 cells assessed as reduction in cell viability at > antiviral IC50 by MTT assay; type: cell-based
A549 [2] = assay: Cytotoxicity against human A549 cells assessed as reduction in cell viability at <= 1 uM by MTT assay; type: cell-based
Zika virus [3] = assay: Antiviral activity against Zika virus infected in human A549 cells assessed as reduction in viral titer incubated for 48 hrs by plaque assay; type: functional, organism-based; conditions: A549, 48 h
Zika virus [4] = assay: Potency index, ratio of ASN 07115873 to compound IC50 for Antiviral activity against Zika virus infected in human A549 cells; type: functional

C#CCSc1nsc(NC(=O)Nc2ccc(I)cc2)n1
Activity (A549 [1]): >= 50% | Activity (A549 [2]): Non-Toxic | IC50 (Zika virus [3]): 0.809 nM

C=CCSc1nnc(NC(=S)Nc2ccc(Br)cc2C(F)(F)F)s1
IC50 (Zika virus [3]): 46.6 nM

C=CCSc1nc(NC(=O)Nc2ccc(I)cc2)ns1
Activity (A549 [1]): >= 50% | Activity (A549 [2]): Non-Toxic | IC50 (Zika virus [3]): 1200 nM

C=CCSc1nsc(NC(=O)Nc2ccc(I)cc2)n1
Activity (A549 [1]): >= 50% | Activity (A549 [2]): Non-Toxic | IC50 (Zika virus [3]): 0.414 nM

C=CCSc1nnc(NC(=O)Nc2ccc(Cl)c(C(F)(F)F)c2)s1
Activity (A549 [1]): >= 50% | Activity (A549 [2]): Non-Toxic | IC50 (Zika virus [3]): 0.111 nM

C=CCNc1nc(NC(=O)Nc2ccc(Cl)cc2)ns1
Activity (A549 [1]): >= 50% | Ratio IC50 (Zika virus [4]): 2.2 | Activity (A549 [2]): Non-Toxic | IC50 (Zika virus [3]): 0.0851 nM

C=CCSc1nsc(NC(=S)Nc2ccc(Cl)c(C(F)(F)F)c2)n1
Activity (A549 [1]): >= 50% | Activity (A549 [2]): Non-Toxic | IC50 (Zika virus [3]): 4.9 nM

C=CCNc1nc(NC(=O)Nc2ccc(Br)cc2)ns1
Activity (A549 [1]): >= 50% | Activity (A549 [2]): Non-Toxic | IC50 (Zika virus [3]): 0.0977 nM

C#CCSc1nsc(NC(=S)Nc2ccc(Br)cc2)n1
Activity (A549 [1]): >= 50% | Activity (A549 [2]): Non-Toxic | IC50 (Zika virus [3]): 706 nM

C#CCSc1nsc(NC(=O)Nc2ccc(Br)cc2)n1
Activity (A549 [1]): >= 50% | Activity (A549 [2]): Non-Toxic | IC50 (Zika virus [3]): 0.665 nM

C=CCSc1nc(NC(=O)Nc2ccc(Br)cc2)ns1
Activity (A549 [1]): >= 50% | Activity (A549 [2]): Non-Toxic | IC50 (Zika virus [3]): 1300 nM

C=CCSc1nc(NC(=O)Nc2ccc(Cl)c(C(F)(F)F)c2)ns1
Activity (A549 [1]): >= 50% | Activity (A549 [2]): Non-Toxic | IC50 (Zika virus [3]): 1000 nM

C=CCSc1nnc(NC(=O)Nc2ccc(Br)cc2)s1
Activity (A549 [1]): >= 50% | Activity (A549 [2]): Non-Toxic | IC50 (Zika virus [3]): 0.144 nM

C=CCSc1nsc(NC(=O)Nc2ccc(Br)cc2)n1
Activity (A549 [1]): >= 50% | Activity (A549 [2]): Non-Toxic | IC50 (Zika virus [3]): 0.329 nM

C=CCSc1nc(NC(=S)Nc2ccc(Cl)cc2)ns1
Activity (A549 [1]): >= 50% | Activity (A549 [2]): Non-Toxic | IC50 (Zika virus [3]): 2600 nM

C=CCSc1nsc(NC(=S)Nc2ccc(Br)cc2)n1
Activity (A549 [1]): >= 50% | Activity (A549 [2]): Non-Toxic | IC50 (Zika virus [3]): 2100 nM

C#CCSc1nsc(NC(=O)Nc2ccc(Cl)c(C(F)(F)F)c2)n1
Activity (A549 [1]): >= 50% | Activity (A549 [2]): Non-Toxic | IC50 (Zika virus [3]): 0.962 nM

C#CCSc1nsc(NC(=S)Nc2ccc(Cl)c(C(F)(F)F)c2)n1
Activity (A549 [1]): >= 50% | Activity (A549 [2]): Non-Toxic | IC50 (Zika virus [3]): 57.4 nM

C=CCSc1nnc(NC(=O)Nc2ccc(I)cc2)s1
Activity (A549 [1]): >= 50% | Activity (A549 [2]): Non-Toxic | IC50 (Zika virus [3]): 0.179 nM

C=CCSc1nsc(NC(=O)Nc2ccc(Cl)c(C(F)(F)F)c2)n1
Activity (A549 [1]): >= 50% | Activity (A549 [2]): Non-Toxic | IC50 (Zika virus [3]): 0.423 nM

C=CCSc1nc(NC(=S)Nc2ccc(Br)cc2)ns1
Activity (A549 [1]): >= 50% | Activity (A549 [2]): Non-Toxic | IC50 (Zika virus [3]): 4100 nM

C=CCSc1nnc(NC(=O)Nc2ccc(Cl)cc2)s1
Activity (A549 [1]): >= 50% | Activity (A549 [2]): Non-Toxic | IC50 (Zika virus [3]): 0.191 nM

C=CCSc1nsc(NC(=S)Nc2ccc(Cl)cc2)n1
Activity (A549 [1]): >= 50% | Activity (A549 [2]): Non-Toxic | IC50 (Zika virus [3]): 493 nM

CCCSc1nnc(NC(=O)Nc2ccc(Cl)c(C(F)(F)F)c2)s1
IC50 (Zika virus [3]): 0.149 nM

C=CCSc1nsc(NC(=O)Nc2ccc(Cl)cc2)n1
Activity (A549 [1]): >= 50% | Activity (A549 [2]): Non-Toxic | IC50 (Zika virus [3]): 0.191 nM

C=CCSc1nsc(NC(=S)Nc2ccc(I)cc2)n1
Activity (A549 [1]): >= 50% | Activity (A549 [2]): Non-Toxic | IC50 (Zika virus [3]): 2600 nM

C=CCNc1nc(NC(=O)Nc2ccc(Cl)c(C(F)(F)F)c2)ns1
Activity (A549 [1]): >= 50% | Activity (A549 [2]): Non-Toxic | IC50 (Zika virus [3]): 0.114 nM

C=CCSc1nnc(NC(=S)Nc2ccc(I)cc2)s1
Activity (A549 [1]): >= 50% | Activity (A549 [2]): Non-Toxic | IC50 (Zika virus [3]): 0.156 nM

C=CCSc1nnc(NC(=S)Nc2ccc(Br)cc2)s1
Activity (A549 [1]): >= 50% | Activity (A549 [2]): Non-Toxic | IC50 (Zika virus [3]): 0.147 nM

O=C(Nc1ccc(Cl)c(C(F)(F)F)c1)Nc1nnc(S)s1
IC50 (Zika virus [3]): 0.982 nM

C=CCSc1nc(NC(=S)Nc2ccc(Br)cc2C(F)(F)F)ns1
IC50 (Zika virus [3]): 2900 nM

C=CCNc1nc(NC(=O)Nc2ccc(I)cc2)ns1
Activity (A549 [1]): >= 50% | Activity (A549 [2]): Non-Toxic | IC50 (Zika virus [3]): 0.1 nM

C#CCSc1nsc(NC(=O)Nc2ccc(Cl)cc2)n1
Activity (A549 [1]): >= 50% | Activity (A549 [2]): Non-Toxic | IC50 (Zika virus [3]): 1.4 nM

C=CCSc1nnc(NC(=O)Nc2ccc(Br)cc2C(F)(F)F)s1
IC50 (Zika virus [3]): 9100 nM

C=CCSc1nc(NC(=S)Nc2ccc(Cl)c(C(F)(F)F)c2)ns1
Activity (A549 [1]): >= 50% | Activity (A549 [2]): Non-Toxic | IC50 (Zika virus [3]): 233 nM

C=CCSc1nc(NC(=S)Nc2ccc(I)cc2)ns1
Activity (A549 [1]): >= 50% | Activity (A549 [2]): Non-Toxic | IC50 (Zika virus [3]): 2700 nM

C=CCSc1nnc(NC(=S)Nc2ccc(Cl)c(C(F)(F)F)c2)s1
Activity (A549 [1]): >= 50% | Activity (A549 [2]): Non-Toxic | IC50 (Zika virus [3]): 0.0977 nM
